Assays:
[1] = biological target: T1, human S1P1 receptors (Homo sapiens, UniProt P21453); experiment: Human S1P1 Receptor Calcium FLIPR Antagonist Assay (HeLa Gα16 S1P1); type: cell-based; details: relative antagonism of Ca2+ signal evoked by probing agonist GNF-AC-1 at EC80; HeLa-S1P1/Gα16 cells
T1 construct: myc (N); expressed in transfected cells; host or cells: HeLa (human cervix carcinoma, ATCC CCL2), HeLa-S1P1/Gα16 cell clone 1
Method in brief: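 HeLa Gα16 cells expressing S1P1 loaded for calcium fluorescence on FLIPR; compounds added in HBSS with 0.1% BSA, then agonist at EC80 20-30 min later. IC50 from (Fmax-Fmin)/Fmin versus log compound concentration.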

[2] = tested on: circulating lymphocytes; experiment: Measurement of Circulating Lymphocytes; type: in vivo, Rats (Lewis strain, male); details: Rattus norvegicus, Lymphocyte; male Lewis rats, 14 hours after oral 30 mg/kg, compared to vehicle-only group; mean±SEM; read-out: Residual Lymphocyte Counts 14 hours after 30 mg/kg p.o. dosing
Method: The compounds of formula (I) typically induce the depletion of blood lymphocyte as may be determined in the assay described below. Moreover, compounds of formula (I) are typically efficacious in the said assay also when administered via the per oral route of administration.
Measurement of Circulating Lymphocytes:
The test compounds (or salts thereof) are dissolved in a vehicle such as water, saline, PEG (polyethylene glycol) 200, or PBS (phosphate buffered saline). Rats (Lewis strain, male, 6-12 weeks old) are administered up to 100 mg/kg of the test compounds in 2 ml/kg vehicle via per oral or subcutaneous application. The vehicle or a reference salt and FTY720 (0.3 mg/kg) are included as negative and positive controls, respectively.
Blood is collected from the sublingual vein before and 2, 8 and 24 hours or 14, 18 and 24 hours after the test compound administration under short isoflurane anesthesia. Whole blood samples are subjected to hematology analysis. Peripheral lymphocyte counts are determined using an automated analyzer. The Haemathology System uses a combination of light scatter, cytochemical staining and nuclear density on two independent channels to measure the total and differential white cell counts. Two to four rats are used to assess the lymphocyte depletion activity of each compound screened. The data are presented as mean±SEM.

T1 sequence (P21453 whole entry): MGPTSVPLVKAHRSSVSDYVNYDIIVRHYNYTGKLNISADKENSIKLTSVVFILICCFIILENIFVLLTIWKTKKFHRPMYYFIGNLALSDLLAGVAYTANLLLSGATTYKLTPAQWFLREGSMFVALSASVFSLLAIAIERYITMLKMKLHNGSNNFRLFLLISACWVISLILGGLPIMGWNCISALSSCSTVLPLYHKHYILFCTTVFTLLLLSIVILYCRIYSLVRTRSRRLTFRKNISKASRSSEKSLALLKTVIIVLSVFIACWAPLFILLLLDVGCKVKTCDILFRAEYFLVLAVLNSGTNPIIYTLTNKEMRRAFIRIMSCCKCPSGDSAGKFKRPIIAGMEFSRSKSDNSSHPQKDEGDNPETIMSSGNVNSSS

Structure (SMILES)	IC50 [1] [nM]	response vs control in vivo at 30 mg/kg [2] [%]
Cc1cc(C(Nc2cccc(-c3cc(C)c(C(=O)N(C)[C@@H](C)C(=O)O)c(C)c3)c2)C(F)F)ccc1Cl (stereo partly drawn) [Example 103, (S)-2-({3′-[1-(4-Chloro-3-methyl-phenyl)-2,2-difluoro-ethylamino]-3,5-dimethyl-biphenyl-4-carbonyl}-methyl-amino)-propionic acid]	3	13.9
CC[C@H](c1ccc(Cl)c(C)c1)N(C)c1cccc(-c2cc(C)c(C(=O)N(C)[C@@H](C)C(=O)O)c(C)c2)c1 [Example 105, (S)-2-[(3′-{[(R)-1-(4-Chloro-3-methyl-phenyl)-propyl]-methyl-amino}-3,5-dimethyl-biphenyl-4-carbonyl)-methyl-amino]-propionic acid]	10	20.9
Cc1cc([C@H](Nc2cccc(-c3cc(C)c(C(=O)N[C@@H](C)C(=O)O)c(C)c3)c2)C(F)(F)F)ccc1Cl [Example 106, (S)-2-({3′-[(S)-1-(4-Chloro-3-methyl-phenyl)-2,2,2-trifluoro-ethylamino]-3,5-dimethyl-biphenyl-4-carbonyl}-amino)-propionic acid]	2	10.9
CC[C@H](c1ccc(Cl)c(C)c1)N(C)c1cccc(-c2cc(C)c(C(=O)NC3(C(=O)O)CC3)c(C)c2)c1 [Example 108, 1-[(3′-{[(R)-1-(4-Chloro-3-methyl-phenyl)-propyl]-methyl-amino}-3,5-dimethyl-biphenyl-4-carbonyl)-amino]-cyclopropanecarboxylic acid]	8	19.6
CC[C@@H](Nc1cccc(-c2cc(C)c(C(=O)NC3(C(=O)O)CC3)c(C)c2)c1)c1ccc(Cl)c(C)c1 [Example 109, 1-({3′-[(R)-1-(4-Chloro-3-methyl-phenyl)-propylamino]-3,5-dimethyl-biphenyl-4-carbonyl}-amino)-cyclopropanecarboxylic]	2	19.1
Cc1cc([C@H](Nc2cccc(-c3cc(C)c(C(=O)NC4(C(=O)O)CC4)c(C)c3)c2)C(F)(F)F)ccc1Cl [Example 112, 1-({3′-[(S)-1-(4-Chloro-3-methyl-phenyl)-2,2,2-trifluoro-ethylamino]-3,5-dimethyl-biphenyl-4-carbonyl}-amino)-cyclopropanecarboxylic acid]	2	18.3
CC[C@@H](Nc1ccc(F)c(-c2cc(C)c(C(=O)NC3(C(=O)O)CC3)c(C)c2)c1)c1ccc(Cl)c(C)c1 [Example 115, 1-({5′-[(R)-1-(4-Chloro-3-methyl-phenyl)-propylamino]-2′-fluoro-3,5-dimethyl-biphenyl-4-carbonyl}-amino)-cyclopropanecarboxylic acid]	2	15.8
CC[C@@H](Nc1ccc(F)c(-c2cc(C)c(C(=O)N(C)[C@@H](C)C(=O)O)c(C)c2)c1)c1ccc(Cl)c(C)c1 [Example 117, (S)-2-({5′-[(R)-1-(4-Chloro-3-methyl-phenyl)-propylamino]-2′-fluoro-3,5-dimethyl-biphenyl-4-carbonyl}-methyl-amino)-propionic acid]	2	15

From patent US20100168079A1 (priority 2008, published 2010)
